From patent US8952024B2, “Herbicidal pyrimidone derivatives” (E I du Pont de Nemours and Company, priority 2009, dated 2015)

Key:
Assay type in all cases: in vivo
[1] = tested on: umbrella sedge (Cyperus difformis); test: Test B flooded paddy test; conditions: for Plant response rating, Sedge, Umbrella: Flood (flooded paddy test), 13 to 15 days
Method in brief: (§1)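 Flooded-pot test: water raised to 3 cm above soil when treating, compound put in the water, level unchanged thereafter. Plants were at 2 leaves. Readout after 13 to 15 days, visual, relative to controls; 0 signifies no effect and 100 complete control.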

[2] = tested on: rice (Oryza sativa); test: Test B flooded paddy test; conditions: for Plant response rating, Rice: Flood (flooded paddy test), 13 to 15 days
Method in brief: as §1

[3] = tested on: barnyardgrass (Echinochloa crus-galli); test: Test B flooded paddy test; conditions: for Plant response rating, Barnyardgrass: Flood (flooded paddy test), 13 to 15 days
Method in brief: as §1

[4] = tested on: ducksalad (Heteranthera limosa); test: Test B flooded paddy test; conditions: for Plant response rating, Ducksalad: Flood (flooded paddy test), 13 to 15 days
Method in brief: as §1

[5] = tested on: galium (catchweed bedstraw, Galium aparine); test: Test B pre-/postemergence plant response; conditions: Preemergence
Method in brief: (§2)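 Visually scored on a 0 to 100 scale after 13 to 15 days in greenhouse versus controls. Treatments were preemergence on seeded loam/sand soil and postemergence on 1- to 4-leaf plants.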

[6] = tested on: ragweed (common ragweed, Ambrosia elatior); test: Test B pre-/postemergence plant response
Method in brief: as §2

[7] = tested on: nightshade (eastern black nightshade, Solanum ptycanthum); test: Test B pre-/postemergence plant response; conditions: Preemergence
Method in brief: as §2

[8] = tested on: sunflower (common oilseed sunflower, Helianthus annuus); test: Test B pre-/postemergence plant response; conditions: Preemergence
Method in brief: as §2

[9] = tested on: Italian ryegrass (Lolium multiflorum); test: Test B pre-/postemergence plant response
Method in brief: as §2

[10] = tested on: giant foxtail (Setaria faberii); test: Test B pre-/postemergence plant response
Method in brief: as §2

[11] = tested on: chickweed (Stellaria media); test: Test B postemergence plant response
Method in brief: (§3)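 Plants at the 1- to 4-leaf stage (2 to 18 cm tall), grown in pots of peat moss/vermiculite medium with wetting agent and starter nutrients, received postemergence applications of test chemicals. After 13 to 15 days in a greenhouse, injury was rated visually against untreated controls on a 0 (no effect) to 100 (complete control) scale.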

[12] = tested on: canarygrass (Phalaris minor); test: Test B postemergence plant response
Method in brief: as §3

[13] = tested on: windgrass (Apera spica-venti); test: Test B postemergence plant response
Method in brief: as §3

[14] = tested on: winter barley (Hordeum vulgare); test: Test B postemergence plant response
Method in brief: as §3

[15] = tested on: goosegrass (Eleusine indica); test: Test B pre-/postemergence plant response; conditions: Preemergence, 62 g ai/ha; scale 0 to 100, 0 no effect, 100 complete control
[16] = 250 g ai/ha, flooded paddy test, visual rating on 0 to 100 scale (0 no effect, 100 complete control) after 13 to 15 days
[17] = 31 g ai/ha, scale of 0 to 100 where 0 is no effect and 100 is complete control
[18] = 62 g ai/ha, scale of 0 to 100 where 0 is no effect and 100 is complete control
[19] = 125 g ai/ha, scale 0 to 100, 0 is no effect, 100 is complete control
[20] = 31 g ai/ha, scale 0 to 100 (0 no effect, 100 complete control)
[21] = 62 g ai/ha, scale 0 to 100, 0 no effect, 100 complete control
[22] = 31 g ai/ha, postemergence, scale 0 to 100, 0 is no effect, 100 is complete control
[23] = 250 g ai/ha, Preemergence, 0 to 100 scale
[24] = Postemergence, 62 g ai/ha, scale 0 (no effect) to 100 (complete control), 13 to 15 days
[25] = Postemergence, 125 g ai/ha, visual rating after 13 to 15 days, scale 0 (no effect) to 100 (complete control)
[26] = Postemergence, 250 g ai/ha, scale 0 to 100 (0 no effect, 100 complete control)
[27] = Preemergence, 31 g ai/ha, scale 0 to 100 (0 no effect, 100 complete control)
[28] = Preemergence, 125 g ai/ha, 0 to 100 scale

## Cc1ccc(F)c(-n2c(-c3ccccc3)ncc(C(=O)C3=C(O)CCCC3=O)c2=O)c1 [Compound 51]
[1]; [16]
  Plant response rating, Flood, Sedge, Umbrella: 90
[1]; [17]
  Plant response rating, Sedge, Umbrella: 30
[1]; [18]
  Plant response rating, Sedge, Umbrella: 40
[1]; [19]
  Plant response rating, Sedge, Umbrella: 85
[2]; [16]
  Plant response rating, Flood, Rice: 60
[2]; [17]
  Plant response rating, Rice: 10
[2]; [18]
  Plant response rating, Rice: 15
[2]; [19]
  Plant response rating, Rice: 25
[3]; [16]
  Plant response rating, Flood, Barnyardgrass: 55
[3]; [17]
  Plant response rating, Barnyardgrass: 15
[3]; [18]
  Plant response rating, Barnyardgrass: 20
[3]; [19]
  Plant response rating, Barnyardgrass: 40
[4]; [16]
  Plant response rating, Flood, Ducksalad: 95
[4]; [17]
  Plant response rating, Ducksalad: 0
[4]; [18]
  Plant response rating, Ducksalad: 30
[4]; [19]
  Plant response rating, Ducksalad: 85
[5]; 250 g ai/ha, 0 to 100 scale
  Plant response rating, Galium: 95
[5]; [20]
  Plant response rating, Galium: 0
[5]; [21]
  Plant response rating, Galium: 75
[5]; 125 g ai/ha, 0 to 100 scale
  Galium plant response rating: 80
[6]; [22]
  Plant response rating, Ragweed: 80
[6]; [23]
  Plant response rating, Ragweed: 90
[6]; [24]
  Plant response rating, Ragweed: 80
[6]; [25]
  Plant response rating, Ragweed: 90
[6]; [26]
  Plant response rating, Ragweed: 95
[6]; [27]
  Plant response rating, Ragweed: 65
[6]; [28]
  Ragweed plant response rating: 80
[7]; 250 g ai/ha, 0 to 100 scale
  Plant response rating, Nightshade: 100
[7]; [20]
  Plant response rating, Nightshade: 98
[7]; [21]
  Plant response rating, Nightshade: 98
[7]; 125 g ai/ha, 0 to 100 scale
  Nightshade plant response rating: 98
[8]; 250 g ai/ha, 0 to 100 scale
  Plant response rating, Sunflower: 75
[8]; [20]
  Plant response rating, Sunflower: 20
[8]; 125 g ai/ha, 0 to 100 scale
  Sunflower plant response rating: 75
[9]; [22]
  Plant response rating, Ryegrass, Italian: 0
[9]; [23]
  Plant response rating, Ryegrass, Italian: 5
[9]; [24]
  Plant response rating, Ryegrass, Italian: 0
[9]; [25]
  Plant response rating, Ryegrass, Italian: 10
[9]; [26]
  Plant response rating, Ryegrass, Italian: 30
[9]; [27]
  Plant response rating, Ryegrass, Italian: 0
[9]; [28]
  Ryegrass, Italian plant response rating: 0
[10]; [22]
  Plant response rating, Foxtail, Giant: 80
[10]; [23]
  Plant response rating, Foxtail, Giant: 75
[10]; [24]
  Plant response rating, Foxtail, Giant: 80
[10]; [25]
  Plant response rating, Foxtail, Giant: 85
[10]; [26]
  Plant response rating, Foxtail, Giant: 85
[10]; [27]
  Plant response rating, Foxtail, Giant: 0
[10]; Preemergence, 62 g ai/ha, scale 0 to 100, 0 no effect, 100 complete control
  Plant response rating, Foxtail, Giant: 45
[10]; [28]
  Foxtail, Giant plant response rating: 50
[11]; [22]
  Plant response rating, Chickweed: 80
[11]; [24]
  Plant response rating, Chickweed: 80
[11]; [25]
  Plant response rating, Chickweed: 85
[11]; [26]
  Plant response rating, Chickweed: 95
[12]; [22]
  Plant response rating, Canarygrass: 60
[12]; [24]
  Plant response rating, Canarygrass: 60
[12]; [25]
  Plant response rating, Canarygrass: 60
[12]; [26]
  Plant response rating, Canarygrass: 98
[13]; [22]
  Plant response rating, Windgrass: 50
[13]; [24]
  Plant response rating, Windgrass: 60
[13]; [25]
  Plant response rating, Windgrass: 60
[13]; [26]
  Plant response rating, Windgrass: 85
[14]; [22]
  Plant response rating, Barley: 5
[14]; [24]
  Plant response rating, Barley: 25
[14]; [25]
  Plant response rating, Barley: 30
[14]; [26]
  Plant response rating, Barley: 50
[15]
  Plant response rating, Goosegrass: 100
